Measured values published in patent US20250197799A1, “CELLS DERIVED FROM POLYPEDILUM VANDERPLANKI AND ODOR SENSOR EQUIPPED THEREWITH” (University of Maryland, College Park, priority 2022, published 2025).

Tests used:
Orco-Or47a [1] = target: T1, Orco-Or47a (Drosophila melanogaster, UniProt P81921+Q9VNB5); test: Exogenous membrane protein function before drying and after drying-rehydration, Orco-Or47a stable expression cell line; type: cell-based; parameters: remnant residues; expressed in transfected cells; host or cells: Pv11 cells (Polypedilum vanderplanki), CRIS-PITCh knock-in at the Pv.00443 locus downstream of the 121 promoter, Zeocin selection and single-cell sorting; settings: before drying
T1 sequence (Q9VNB5 1-486): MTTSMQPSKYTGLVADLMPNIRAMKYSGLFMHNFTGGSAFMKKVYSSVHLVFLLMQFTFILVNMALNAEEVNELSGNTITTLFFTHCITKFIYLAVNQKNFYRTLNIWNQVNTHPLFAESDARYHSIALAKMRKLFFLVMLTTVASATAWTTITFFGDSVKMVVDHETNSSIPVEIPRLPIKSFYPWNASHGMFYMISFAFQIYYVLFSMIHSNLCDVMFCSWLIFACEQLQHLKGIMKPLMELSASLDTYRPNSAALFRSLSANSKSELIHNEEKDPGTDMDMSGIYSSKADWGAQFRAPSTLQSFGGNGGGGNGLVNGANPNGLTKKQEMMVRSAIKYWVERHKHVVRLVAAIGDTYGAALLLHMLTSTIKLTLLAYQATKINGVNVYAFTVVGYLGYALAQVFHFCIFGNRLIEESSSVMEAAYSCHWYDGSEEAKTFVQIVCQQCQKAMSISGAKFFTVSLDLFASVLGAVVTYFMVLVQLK
T1 sequence (P81921 1-385): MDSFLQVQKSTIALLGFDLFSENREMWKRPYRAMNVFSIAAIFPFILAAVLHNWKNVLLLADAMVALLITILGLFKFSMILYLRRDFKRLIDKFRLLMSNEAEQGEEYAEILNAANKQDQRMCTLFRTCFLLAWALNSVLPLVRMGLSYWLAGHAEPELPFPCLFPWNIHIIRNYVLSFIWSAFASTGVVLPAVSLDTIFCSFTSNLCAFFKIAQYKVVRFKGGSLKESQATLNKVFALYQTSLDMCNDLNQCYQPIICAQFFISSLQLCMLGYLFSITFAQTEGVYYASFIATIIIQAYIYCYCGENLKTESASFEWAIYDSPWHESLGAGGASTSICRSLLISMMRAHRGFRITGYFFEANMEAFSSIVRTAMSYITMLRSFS
Procedure: To assess the drought tolerance of the cell lines, the cells were dried according to the following protocol. 4×10^7 Pv11-GCaMP6f stable expression cell lines were centrifuged at 700 g for 3 minutes and the supernatant removed. The precipitated cells were suspended in a 600 mM trehalose mix of 600 mM trehalose and IPL-41 medium at a ratio of 9:1, transferred to a 2 ml flask, and incubated at 25° C. for 48 hours. After 48 hours, the obtained cells were centrifuged at 700 g for 3 minutes and the supernatant was removed. The sedimented cells were suspended in 400 μl of 600 mM trebalose mix, and 40 μl were dropped onto a 35 mm dish. The 35 mm dish was dried for 10 days under conditions of 25° C. and humidity of 10% or less.
6. Assessment of exogenous membrane protein function after drying-rehydration. Using the Orco stable expression cell line and Orco-Or47a stable expression cell line, in order to assess the function of exogenous membrane proteins before drying and after 1 hour of rehydration after drying, fluorescence intensity generated in response to stimulation with VUAA1 (Orco agonist) or pentyl acetate (ligand of Or47a) was measured in the same manner as in 3.2 above.
The fluorescence intensity was digitized from the photograph, and ΔF/F was calculated according to the following formula:
Where the summation Σi=1^n is over the n cells in the image, Fi,after means the fluorescence intensity of the cell i after adding the ligand solution, and Fi,0 means the fluorescence intensity of the cell i before adding the ligand solution.
Specifically, a fluorescence image was taken under the condition in which the excitation wavelength/fluorescence wavelength was 488 nm/525 nm. In the fluorescence intensity quantification, the cells were identified in the photographed image, and the fluorescence intensity (F) was measured for each time. The initial values of fluorescence intensity (F0) were subtracted from the measured fluorescence intensity at each time to obtain the amount of change in fluorescence (ΔF), which was then normalized by dividing by the initial value of fluorescence intensity (F0) to obtain (Δ F/F0). A number of cells n were selected from the captured image, ΔF/F0 were produced for each, and the average value (including standard deviation, SD) of the results was graphed. For example, 25 cells were selected from the captured image, ΔF/F0 for each were produced, and the averaged results (including SD) were graphed. […] The Orco-Or47a stable expression cell line before drying responded to the Orco agonist (VUAA1) and the specific ligand of Or47a, pentyl acetate.

Orco-Or47a [2] = test: Response after rehydration with cycloheximide treatment, Orco-Or47a stable expression cell line; type: cell-based, Drosophila melanogaster
Procedure: 7. Confirmation that exogenous membrane protein responses in Orco-Or47a stable expression cell lines immediately after rehydration are not due to de novo protein synthesis. To confirm that the membrane protein response of the Orco-Or47a stable expression cell line immediately after rehydration was not due to de novo protein synthesis, cells were treated with cycloheximide (CHX, a protein synthesis inhibitor).
A previous study reported that 0.35 mM of cycloheximide is able to inhibit protein production in Pv11 cells. Therefore, also in this experiment, cycloheximide was dissolved in IPL-41 medium so that the cycloheximide concentration was 0.35 mM. An IPL-41 medium with 0.01 mM, 0.07 mM and 0.7 mM cycloheximide was also prepared. […] One hour after rehydration and 24 hours after rehydration, the same operation as in 3.6 above was performed, and the fluorescence intensity was measured and analyzed. […] FIG. 7A and FIG. 7B are graphs showing changes in fluorescence intensity of the Orco-Or47a stable expression cell line response to VUAA1 and pentyl acetate, respectively, one hour after drying and rehydration. FIGS. 7C and 7D are graphs showing changes in fluorescence intensity, respectively, in response to VUAA1 and pentyl acetate of Orco-Or47a stable expression cell lines 24 hours after drying and rehydration.

Pv11 cells = settings: previous study; cited from earlier work
[3] = tested on: GCaMP6f stable expression cell line; test: Functionality of GCaMP6f with ionomycin; type: cell-based, Polypedilum vanderplanki; settings: ionomycin final concentration 1 μM, DMSO 1%; DMSO negative control showed no increase
Procedure: 3.2 The functionality of GCaMP6f. The functionality of GCaMP6f in the resulting cell lines was evaluated using Ionomycin (Ionomycin; Fujifilm Wako Pure Chemical) to increase the intracellular concentration of calcium ions to provide functional confirmation of exogenous proteins in the GCaMP6f stable-expressing cell line. Ionomycin was dissolved in dimethyl sulfoxide (DMSO; Fujifilm Wako Pure Chemical Industries, Ltd.), adjusted to a final DMSO concentration of 1% and an ionomycin final concentration of 1 μM in IP1-41 medium, and added to the cell solution. As a negative control, DMSO was adjusted to a final concentration of 1% in IP 1-41 medium and added to the cell solution. Bright-field images and fluorescence images (ex: 470/40 nm; em: 525/50 nm) of the cells before and after solution addition were taken (all-in-one fluorescence microscope BZ-X710, Keyence). […] Therefore, it was confirmed that the expressed GCaMP6f functioned in the obtained stable expression cell line. For statistical analysis of fluorescence intensity, one-way ANOVA was performed using Prism8 (GraphPad), followed by Tukey's multiple comparison test as a post-hoc test, […]

Question: Which “response as change in fluorescence intensity (ΔF/F0)” value (Orco-Or47a [1]) does the source give for CC(=O)c1ccccc1 [acetophenone] here?
Answer: did not react

Question: Which “effect of cycloheximide on function of the exogenous membrane protein” value (Orco-Or47a [2]; 1 hour after rehydration, cycloheximide 0.01, 0.07, 0.35, 0.7 mM, response to VUAA1 or pentyl acetate) does the source give for C[C@@H]1C[C@@H]([C@H](O)CC2CC(=O)NC(=O)C2)C(=O)[C@@H](C)C1 [cycloheximide] here?
Answer: no significant difference

Question: And the “effect of CHX treatment on response” value (Orco-Or47a [2]; 24 hours after rehydration, response to VUAA1 and pentyl acetate)?
Answer: less responsive

Question: What about the “concentration able to inhibit protein production” value (Pv11 cells) of the same compound?
Answer: 0.35 mM

Question: Which fluorescence after addition [3] does the source give for C[C@H](CCC(=O)O)C[C@H](C)C[C@H](C)C(=O)/C=C(\O)[C@H](C)C[C@H](C)C/C=C/[C@@H](C)[C@@H](O)[C@@H](C)[C@@H](O)C[C@@H]1CC[C@@](C)([C@H]2CC[C@@](C)([C@@H](C)O)O2)O1 [ionomycin, Ionomycin] here?
Answer: stronger fluorescence than before the addition
